Among the data in patent publication EP0775133B1, “NAPHTHALENE AMIDES HAVING LEUKOTRIENE-ANTAGONISTIC ACTION” (LABORATORIOS MENARINI S.A., priority 1994, dated 1996) are IC50 and Ki values, retold here.

Where a name gives a salt, the structure may show the parent alone.

Experiment [1] relates to mienteric plexus of guinea-pig isolated ileum. Put plainly: Inhibition of LTD4-induced contractions in the mienteric plexus of guinea-pig isolated ileum. As to conditions: LTD4 3 nM, compound incubated 2.5 minutes. On the procedure:
Inhibition test of the contractions induced by LTD4 in the mienteric plexus of quinea-pig isolated ileum.
The antagonistic activity of the compounds of the present invention in the isolated organ was evaluated as its ability to inhibit the contraction caused by LTD4 in the mienteric plexus of the ileum of Dunkin Hartley male albino guinea-pig, weighing 300-350 g (Cristol J.P. and Sirois P. Res. Commun. Chem. Pathol., 59, 423 (1988)).
The mienteric plexus is extracted from a 2-3 cm segment of the terminal portion of the guinea-pig ileum, previously sacrificed by cervical dislocation. The plexus is put, at a tension of 0.5 g, in a 5 ml organ bath, containing a solution of Tyrode (137 mM NaCl, 2.7 mM KCl, 1.4 mM CaCl2, 0.4 mM NaH2PO4, 11.9 mM NaHCO3, 0.8 mM MgSO4, 5.5 mM glucose), saturated with carbogen gas (95% 02-5% CO2) at 37°C. The solution also contains indomethacin (3.3 µM) and atropine (0.4 µM) to remove the action of the intrinsic prostaglandins and the cholinergic responses.
After a 45 minute stabilization period a maximum isotonic response is obtained (100% contractile response) adding to the bath chamber the LTD4 agonist (3 nM). This process is repeated until the same contraction response is obtained twice. The […] measures are made in an isotonic transducer.
After stabilization is restored, the product under test is incubated at different concentrations (dissolved in 0.1% final concentration DMSO) for 2.5 minutes, and after that the contraction with LTD4 is induced again.
The antagonistic activity is expressed as IC50, the concentration of compound which reduces by 50% the maximum contraction.

The next experiment has as its target T1, LTD4 receptors (Cavia porcellus, UniProt Q2NNR5).
T1 construct: Guinea pig lung membranes, containing the LTD4 receptors; from tissue; host or cells: guinea-pig lung membranes
T1 sequence (Q2NNR5 1-340): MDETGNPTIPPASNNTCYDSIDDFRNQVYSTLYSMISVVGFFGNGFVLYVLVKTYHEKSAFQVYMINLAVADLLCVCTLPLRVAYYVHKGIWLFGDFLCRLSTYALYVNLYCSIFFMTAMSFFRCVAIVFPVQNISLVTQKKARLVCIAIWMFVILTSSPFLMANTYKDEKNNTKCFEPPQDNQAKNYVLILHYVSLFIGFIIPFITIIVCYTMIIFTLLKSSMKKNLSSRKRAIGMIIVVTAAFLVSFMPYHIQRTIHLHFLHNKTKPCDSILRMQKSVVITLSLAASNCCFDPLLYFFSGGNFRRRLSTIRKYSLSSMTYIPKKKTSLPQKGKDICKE
Briefly: [3H]-LTD4 receptor binding inhibition test in guinea-pig lung membranes. To be noted: 0.5 nM [3H]-LTD4, 30 minutes at 25°C, Cheng-Prusoff. On the procedure: [^3H]-LTD4 receptor binding inhibition test in quinea-pig lung membranes
These purified membranes (150 µg/ml) are added to an incubation mixture containing 10 mM of PIPES buffer (piperazin-N,N'-bis(2-ethanesulfonic acid) (pH 7.4), 10 mM of CaCl2, 10 mM of 5 MgCl2, 2 mM of cysteine, 2 mM of glycine, 0.5 nM of [^3H]-LTD4 (4700-6400 GBq/mmol) and different concentrations of the product under test in a final volume of 310 µl. The reaction mixture is incubated for 30 minutes at 25°C.
The radioligand bound to the membranes is separated from the free one by dilution with 4 ml washing buffer (10 mM Tris-HCl (pH 7.4) and 100 mM NaCl) at 0°C and filtration with Whatman GF/B filters, by means of a Brandel Cell Harvester. The filters are washed 4 times with a total volume of 16 ml of washing buffer at 0°C. The radioactivity present in the filters is determined by liquid scintillation.
The specific binding is defined as the difference between the total binding of [^3H]-LTD4 and the nonspecific binding determined in the presence of 1 µM LTD4.

Molecule `CC(C(=O)NCc1ccc(-c2nnn[nH]2)cc1)c1ccc2cc(OCc3ccc4ccccc4n3)ccc2c1` (centres unmarked) [Example 1, N-[4-(1H-5-tetrazolyl)phenylmethyl]-2-[6-(2-quinolinylmethoxy)-2-naphthyl]propanamide] gave a half-maximal inhibitory concentration (IC50) in experiment [1] of 0.013 µM.

Regarding `CC(C(=O)NCc1cccc(-c2nnn[nH]2)c1)c1ccc2cc(OCc3ccc4ccccc4n3)ccc2c1` (centres unmarked) [Example 2, N-[3-(1H-5-tetrazolyl)phenylmethyl]-2[6-(2-quinolinylmethoxy)-2-naphthyl]propanamide], the IC50 in experiment [1] was found to be 0.066 µM. The Ki at LTD4 receptors was found to be 0.0295 ± 0.003 µM.

Turning to `CC(C(=O)NCc1ccccc1-c1nnn[nH]1)c1ccc2cc(OCc3ccc4ccccc4n3)ccc2c1` (centres unmarked) [Example 3, N-[2-(1H-5-tetrazolyl)phenylmethyl]-2-[6-(2-quinolinylmethoxy)-2-naphthyl]propanamide], it took 0.018 µM to reach half-maximal inhibition in experiment [1] (IC50). Also, the Ki at LTD4 receptors stood at 0.012 ± 0.003 µM.

The molecule `CC(C(=O)Nc1ccc(Cc2nnn[nH]2)cc1)c1ccc2cc(OCc3ccc4ccccc4n3)ccc2c1` (centres unmarked) [Example 5, N-[4-(1H-5-tetrazolyl)methylphenyl]-2-[6-(2-quinolinylmethoxy)-2-naphthyl]propanamide] had an IC50 in experiment [1] greater than 0.1 µM. At LTD4 receptors, this molecule registered a Ki of 0.034 ± 0.005 µM.

As for `CC(C(=O)Nc1ccc(Cc2nn[nH]n2)cc1)c1ccc2cc(OCc3ccc4ccccc4n3)ccc2c1` (centres unmarked) [Example 6, N-[4-(1H-5-tetrazolyl)methylphenyl]-2-[6-(2-quinolinylmethoxy)-2-naphthyl]propanamide (sodium salt)], in experiment [1], the IC50 is greater than 0.1 µM. In addition, the inhibition constant Ki on LTD4 receptors is 0.0327 ± 0.003 µM.

Take `CC(C(=O)Nc1ccc(CCCC(=O)O)cc1)c1ccc2cc(OCc3ccc4ccccc4n3)ccc2c1` (centres unmarked) [Example 10, 4-[4-[2-[6-(2-quinolinylmethoxy)-2-naphthyl]propanamido]phenyl]butanoic acid]: the IC50 in experiment [1] was greater than 0.1 µM. At LTD4 receptors, this molecule gave a Ki of 0.0385 ± 0.0063 µM.

Regarding `CC(C(=O)NCc1cccc(C(=O)O)c1)c1ccc2cc(OCc3ccc4ccccc4n3)ccc2c1` (centres unmarked) [Example 14, 3-[2-[6-(2-quinolinylmethoxy)-2-naphthyl]propanamidomethyl]benzoic acid], the IC50 in experiment [1] was determined as 0.075 µM. At LTD4 receptors, affinity was put at a Ki of 0.068 ± 0.005 µM.

In the case of `CC(C(=O)Nc1cccc(CC(=O)O)c1)c1ccc2cc(OCc3ccc4ccccc4n3)ccc2c1` (centres unmarked) [Example 18, 3-[2-[6-(2-Quinolinylmethoxy)-2-naphthyl]propanamido]phenylacetic acid], affinity on LTD4 receptors was put at a Ki of 0.134 ± 0.018 µM.

`CC(C(=O)Nc1ccc(CCCC(=O)O)cc1)c1ccc2cc(OCc3ccc4ccc(Cl)cc4n3)ccc2c1` (centres unmarked) [Example 20, 4-[4-[2-[6-[(7-chloro-2-quinolinyl)-methoxy]-2-naphthyl]propanamido]phenyl]butanoic acid] showed a Ki on LTD4 receptors of 0.19 ± 0.021 µM.

Turning to `O=C(Cc1ccc2cc(OCc3ccc4ccccc4n3)ccc2c1)NCc1ccc(-c2nnn[nH]2)cc1` [Example 21, N-[4-(1H-5-tetrazolyl)phenylmethyl]-6-(2-quinolinylmethoxy)-2-naphthaleneacetamide], the half-inhibitory concentration (IC50) in experiment [1] was determined as 0.006 µM. Besides, at LTD4 receptors, the Ki amounted to 0.0055 ± 0.0005 µM.

In experiment [1], `O=C(O)CCCc1ccc(NC(=O)c2ccc3cc(OCc4ccc5ccccc5n4)ccc3c2)cc1` [Example 23, 4-[4-[[6-(2-quinolinylmethoxy)-2-naphthyl]carboxamido]phenyl]butanoic acid] had a concentration for half-maximal inhibition (IC50) greater than 0.1 µM. Further, the affinity at LTD4 receptors, expressed as Ki, was 0.03 ± 0.0012 µM.

Molecule `O=C(NCc1cccc(-c2nnn[nH]2)c1)c1ccc2cc(OCc3ccc4ccccc4n3)ccc2c1` [Example 24, N-[3-(1H-5-tetrazolyl)phenylmethyl]-6-(2-quinolinylmethoxy)-2-naphthalenecarboxamide] came in with a Ki at LTD4 receptors of 0.028 ± 0.003 µM.

In experiment [1], `O=C(O)CCCc1ccc(NC(=O)c2ccc3ccc(OCc4ccc5ccccc5n4)cc3c2)cc1` [Example 26, 4-[4-[[7-(2-quinolinylmethoxy)-2-naphthyl]carboxamido]phenyl]butanoic acid] yielded an IC50 of 0.038 µM.

As to `O=C(NCc1ccc(-c2nnn[nH]2)cc1)c1ccc2ccc(OCc3ccc4ccccc4n3)cc2c1` [Example 27, N-[4-(1H-5-tetrazolyl)phenylmethyl]-7-(2-quinolinylmethoxy)-2-naphthalenecarboxamide], it took 0.028 µM to reach half-maximal inhibition in experiment [1] (IC50). The same molecule came in with an inhibitory constant (Ki) at LTD4 receptors of 0.0078 ± 0.002 µM.

On to `O=C(O)c1ccc(CCNC(=O)c2ccc3ccc(OCc4ccc5ccccc5n4)cc3c2)cc1` [Example 29, 4-[2-[[7-(2-quinolinylmethoxy)-2-naphthyl]carboxamido]ethyl]benzoic acid], for which the midpoint of inhibition in experiment [1], the IC50, lay at 0.008 µM. Moreover, the inhibitory constant (Ki) at LTD4 receptors turned out to be 0.001 ± 0.0001 µM.

The molecule `O=C(NCCc1ccc(-c2nnn[nH]2)cc1)c1ccc2ccc(OCc3ccc4ccccc4n3)cc2c1` [Example 30, N-[4-(1H-5-tetrazolyl)phenylethyl]-7-(2-quinolinylmethoxy)-2-naphthalenecarboxamide] returned an IC50 in experiment [1] of 0.024 µM.

On LTD4 receptors, `O=C(O)CCCc1ccc(C(=O)NCc2ccc3cc(OCc4ccc5ccccc5n4)ccc3c2)cc1` [Example 32, 4-[4-[[6-(2-quinolinylmethoxy)-2-naphthyl]methylaminocarbonyl]phenyl]butanoic acid] came in with a Ki of 0.044 ± 0.015 µM.

In the case of `O=C(NCCCc1ccc(-c2nnn[nH]2)cc1)c1ccc2ccc(OCc3ccc4ccccc4n3)cc2c1` [Example 33, N-[4-(1H-5-tetrazolyl)phenylpropyl]-7-(2-quinolinylmethoxy)-2-naphthalenecarboxamide], 0.087 µM corresponded to half-maximal inhibition in experiment [1] (IC50). For the same molecule, the affinity at LTD4 receptors corresponds to a Ki of 0.0131 ± 0.002 µM.

As usually defined, the IC50 is the midpoint of a concentration-inhibition curve. The term Ki denotes the dissociation constant of the complex between target and ligand, obtained from inhibition or displacement. Read a low Ki as tighter binding.
